Results published in US7329422B2, “Pharmaceutical compositions” (priority 2002, dated 2008).

Experiments:
[1] = test system: human breast cancer cells; assay: purified B-2 compound on human breast cancer cells grown in tissue culture; format: cell-based
Description: (§1) Test were made of the purified B-2 compound on human breast cancer cells grown in tissue culture.

human liver cancer cells = assay: purified B-2 compound on human liver cancer cells in tissue culture; format: cell-based; conditions: visually evident
Description: as §1
The experiment was repeated using human liver cancer cells.

Oc1cc(O)c2c(c1)O[C@H](c1ccc(O)c(O)c1)[C@H](O)[C@H]2c1c(O)cc(O)c2c1O[C@H](c1ccc(O)c(O)c1)[C@H](O)C2 [purified B-2 compound, procyanidin B-2]
number of cells in treated samples [1]: marked reduction
number of cancer cells (human liver cancer cells): substantially reduced
